{"source": "paper PMC10258805", "about": "“Nonpeptidic Oxazole-Based Prolyl Oligopeptidase Ligands with Disease-Modifying Effects on α-Synuclein Mouse Models of Parkinson’s Disease” (Journal of Medicinal Chemistry, 2023)", "key": {"Recombinant human DPP2": {"target": "T1, Recombinant human DPP2 (Homo sapiens, UniProt Q9UHL4)", "T1 construct": "purchased R&D Systems 3438-SE-010", "test": "Close-relative enzyme specificity assay, DPP2", "format": "biochemical", "conditions": "1 or 10 μM", "description": "DPP2: Recombinant human DPP2 was purchased from R&D Systems (#3438-SE-010).\nDPP2: Lys-Ala-pNA was used as the substrate at a concentration of 1 mM at pH 5.5 (100 mM NaAc, 10 mM EDTA, 14 μg/mL aprotinin). […] The substrate was added, and the velocities of pNA release were measured kinetically at 405 nm for at least 10 min at 37 °C. Measurements were done on the Infinite 200 as above."}, "[1]": {"tested_on": "αSyn dimerization in HEK-293 PREP-KO cells", "test": "αSyn-dimerization assay in PREP-KO cells", "format": "cell-based, human"}, "SH-SY5Y cells": {"tested_on": "SH-SY5Y cells", "test": "Cell viability (MTT) in SH-SY5Y cells", "format": "cell-based, human", "conditions": "up to 100 μM, 24 h", "description": "Toxicity testing of selected compounds\nThe impact of compounds on cell viability was assayed at the end of incubation period using a standard MTT assays as described earlier in Svarcbahs et al.11 and Myöhänen et al.12 HEK-293 and SH-SY5Y cells and mouse primary neurons were seeded onto 96-well plates (10,000 cells/well) and incubated overnight. Thereafter, the cells were incubated with 1, 10, and 100 µM of study compounds for 24 h (HEK-293 and SH-SY5Y cells) or 48 h (mouse primary neurons), followed by the measurement of mitochondrial […]\nFigure S68. Selected oxazoles were tested for cell viability in an MTT assay after 24 h treatment in (A) HEK-293 cells and (B) SH-SY5Y cells and 48 h treatment in (C) mouse primary neurons. Even with the high […]\nData are presented as mean + […]\nLC-MS detection of HUP-55 metabolites in the mouse brain\nThe same column and gradient was used with UPLC-HDMS analysis of the metabolites of HUP-55, as for the analysis of HUP-55 detailed in the experimental section of the article. The analyses were performed with ESI (+) resolution mode and the exact masses were analysed with UPLC-Synapt G2 QTOF/MS (Waters). The […]\nCompound Retention time (min) m/z (M+H)+ Empirical formula"}, "[2]": {"tested_on": "pPP2Ac and PP2Ac in mouse brain", "test": "PP2A markers in mouse brain (Western blot)", "format": "in vivo", "conditions": "10 mg/kg i.p., 45 min after injection"}, "LC3BII in mouse brain": {"tested_on": "LC3BII in mouse brain", "test": "LC3BII in mouse brain (Western blot)", "format": "in vivo", "conditions": "10 mg/kg i.p., 45 min after injection"}, "[3]": {"tested_on": "oligomeric αSyn in AAV-αSyn-injected mice", "test": "Oligomer-specific αSyn immunoreactivity (OD) in AAV-αSyn PD mouse model", "conditions": "10 mg/kg/day minipump, 4 weeks"}}, "note": "Entries after “also recorded” stand apart in the source; their conditions may differ.", "data": [{"molecule": "Cc1nc(CCCc2ccccc2)oc1N1CCC[C@H]1C#N", "note": "[HUP-55, (S)-1-(4-Methyl-2-(3-phenylpropyl)oxazol-5-yl)pyrrolidine-2-carbonitrile]", "values": [{"measurement": "inhibition of DPP2", "setting": "Recombinant human DPP2", "value": "no inhibition; also recorded: does not inhibit"}, {"measurement": "effect on αSyn dimerization", "setting": "[1]", "value": "no effect on αSyn dimerization"}, {"measurement": "toxicity (cell viability)", "setting": "SH-SY5Y cells", "value": "None of the compounds caused any toxicity"}, {"measurement": "inactive pPP2Ac levels in mouse brain (in words)", "setting": "[2]", "value": "decreased inactive pPP2Ac levels, but this was not significant"}, {"measurement": "levels of PP2Ac in mouse brain (in words)", "setting": "[2]", "value": "significantly increased the levels of PP2Ac"}, {"measurement": "levels of LC3BII in mouse brain (in words)", "setting": "LC3BII in mouse brain", "value": "significantly elevated"}, {"measurement": "OD of oligomeric αSyn in the SNpc (in words)", "setting": "[3]; vs vehicle-treated group", "value": "did not significantly reduce"}, {"measurement": "OD of oligomer-specific αSyn in the STR (in words)", "setting": "[3]; vs vehicle-treated mice", "value": "decreased the OD of oligomer-specific αSyn"}]}]}
